Source: US5081253A, “Imidazo(4,5-C)pyridines as antiosteoporotic agents” (American Home Products Corporation, priority 1990, dated 1992)

How the values were obtained:
[1] = test system: Rat Limb Bones (PTH induced bone resorption); experiment: Bone Resorption Assay: 45Ca Release from Rat Limb Bones (PTH Induced); format: cell-based, rat (Sprague-Dawley CD); conditions: 10 μg/mL
Description: The purpose of this assay is to identify compounds that inhibit basal or stimulated bone resorption in culture.
The ability of 2-substituted-imidazo[4,5-c]pyridines to modify the process of bone resorption was evaluated essentially as described by L.G. Raisz, Bone resorption in tissue culture. Factors influencing the response to parathyroid hormone.
Timed pregnant Sprague-Dawley CD® rats (Charles River) are administered 100 μCi ^45 CaCl2 (NEN calcium -45 NEZ-013) in 100 μL of 0.9% saline, subcutaneously, on day 18 of gestation. The rats are sacrificed the following day by CO2 asphyxiation. The fetuses are removed and the right forelimbs excised and placed in a Petri dish containing ice cold explant medium consisting of modified BGJb -Fitton Jackson media (custom formulation, Gibco No. 78-0088) adjusted to pH 7.3 to which 10 mM TES is added. […] Under a dissecting microscope, the bones are gently cleaned of adherent tissue and the cartilaginous ends removed. Incubation and drug treatment. […] The preincubation medium is brought to 37° C. prior to transfer of bones. The preincubation medium consists of the modified BGJb medium (with salts and glucose as above), pH 7.3, containing 29 mM NaHCO3. […] For compounds that require nonaqueous solvents, dilutions are made from the appropriate stock solution with medium. In these instances, basal and bone resorption stimulated controls exposed to an equivalent concentration of the vehicle are included. […] The right ulna and radius from each fetus are used. Both bones are subjected to the same treatment and each treatment group consists of bones from 4 or more fetuses. Treatments are randomly assigned using a preclinical statistics program (PS-ALLOC). After a 48 hour incubation at 37° C. in 5% CO2, the bones are removed from the medium and extracted in 0.5 mL of 0.1N HCl for 1 or more days. Duplicate 150 μL aliquots of the incubation medium and the bone extract are analyzed for ^45 Ca radioactivity in 5 mL of liquid scintillation cocktail.
The percentage of bone ^45 Ca released into the medium is determined as follows: [formula] […]

[2] = test system: Rat Limb Bones (basal bone resorption); experiment: Basal Bone Resorption Assay: 45Ca Release from Rat Limb Bones; format: cell-based
From the text: The purpose of this assay is to test stimulators and inhibitors of bone resorption in vitro. The release of ^45 Ca from in vitro labeled murine bone explants into the culture media is taken as an index of bone resorption.
Rat pups are labelled […] by injecting pregnant dams (18 days) with 100 μCi of ^45 Ca.
Two days after the initiation of labelling, the dam is anesthetized with halothane and killed by cervical dislocation. The pups are ablated and quickly decapitated. The calvaria (frontal and parietal bones), forelimbs (containing radii and ulnae), and hind limbs (tibiae) are removed and placed in control media in a petri dish. Bones are debrided of soft tissue by a combination of blunt dissection, and gentle rolling on bibulous paper, taking care not to disturb the periosteum. Cartilaginous ends are cut off long bones. Calvaria are cut in half along midline suture. Bones are separated into 3 categories: calvaria halves, Tibiae and ulnae/radii. Groups of eight (per bone group) are randomly placed in 24-well culture plates containing 0.5 mL of control media. Cultures are maintained at 37° C. in a humidified incubator of 95% air: 5% CO2.
These bones are incubated for 24 hours, media is aspirated from the bones and replaced with fresh media containing test substances. Each bone group has a control group of 8 and a dead bone group of 8. The devitalized cultures are obtained by heating the bones in medium at 55° C. for 60 minutes. The bones are incubated at 37° C. for an additional 72 hours. At the end of this period a 100 microliter aliquot of media is removed and placed in a scintillation vial. Ten mL of Aquasol is added, the ^45 Ca is quantified in a scintillation spectrometer. Bones are rinsed in saline, placed in a scintillation vial, hydrolyzed overnight in 0.75 mL 6N HCl at room temperature. The hydrolyzed bone solution is neutralized by the addition of 2.25 mL of 2N NaOH, followed by 10 mL of Aquasol, the ^45 Ca content is determined by scintillation spectrometry.
Analysis: ^45 Ca release into culture medium from the 24-96 hour period is individually compared to ^45 Ca release in control cultures and to devitalized bone via Dunnett's test. […]

SMILES: [O-][S+](Cc1cccc(C(F)(F)F)c1)c1nc2cnccc2[nH]1 (centres unmarked) [Example 8, 2-[[[3-(Trifluoromethyl)phenyl]methyl]-sulfinyl]-1H-imidazo[4,5-c]pyridine]
- Inhibition of Bone Resorption, PTH Induced ([1]; Table I): Active
- Inhibition of Bone Resorption, Basal ([2]; Table I, concentration not given): Inactive

SMILES: c1ccc(CCSc2nc3cnccc3[nH]2)cc1 [Example 13, 2-[(2-Phenylethyl)thio]-1H-imidazo[4,5-c]pyridine]
- Inhibition of Bone Resorption, PTH Induced ([1]; Table II): Inactive
- Inhibition of Bone Resorption, Basal ([2]; Table II, 10 μg/mL): Inactive

SMILES: [O-][S+](Cc1ccc(Cl)c(Cl)c1)c1nc2cnccc2[nH]1 (centres unmarked) [Example 6, 2-[[(3,4-Dichlorophenyl)methyl]sulfinyl]-1H-imidazo[4,5-c]pyridine]
- Inhibition of Bone Resorption, PTH Induced ([1]; Table I): Active
- Inhibition of Bone Resorption, Basal ([2]; Table I, 10 μg/mL): Active

SMILES: Clc1ccc(CSc2nc3cnccc3[nH]2)cc1Cl [Example 5, 2-[[(3,4-Dichlorophenyl)methyl]thio]-1H-imidazo[4,5-c]pyridine]
- Inhibition of Bone Resorption, Basal ([2]; Table II, 10 μg/mL): Inactive

SMILES: c1ccc(CSc2nc3cnccc3[nH]2)cc1 [Example 11, 2-[[(Phenyl)methyl]thio]-1H-imidazo[4,5-c]pyridine]
- Inhibition of Bone Resorption, Basal ([2]; Table II, 10 μg/mL): Inactive

SMILES: Fc1cccc(Cl)c1CSc1nc2cnccc2[nH]1 [Example 9, 2-[[(2-Chloro-6-fluorophenyl)methyl]thio]-1H-imidazo[4,5-c]pyridine]
- Inhibition of Bone Resorption, PTH Induced ([1]; Table II): Inactive
- Inhibition of Bone Resorption, Basal ([2]; Table II, 10 μg/mL): Inactive

SMILES: c1ccc(COc2cccc(CSc3nc4cnccc4[nH]3)c2)cc1 [Example 22, 2-[[[3-(Phenylmethoxy)phenyl]methyl]thio]-1H-imidazo[4,5-c]pyridine]
- Inhibition of Bone Resorption, PTH Induced ([1]; Table II): Active
- Inhibition of Bone Resorption, Basal ([2]; Table II, 10 μg/mL): Inactive

SMILES: FC(F)(F)c1cccc(CSc2nc3cnccc3[nH]2)c1 [Example 7, 2-[[[3-(Trifluoromethyl)phenyl]methyl]thio]-1H-imidazo[4,5-c]pyridine]
- Inhibition of Bone Resorption, Basal ([2]; Table II, 10 μg/mL): Active

SMILES: Fc1cc(Br)ccc1CSc1nc2cnccc2[nH]1 [Example 20, 2-[[(4-Bromo-2-fluorophenyl)methyl]thio]-1H-imidazo[4,5-c]pyridine]
- Inhibition of Bone Resorption, PTH Induced ([1]; Table II): Active
- Inhibition of Bone Resorption, Basal ([2]; Table II, 10 μg/mL): Inactive

SMILES: [O-][S+](CCc1ccccc1)c1nc2cnccc2[nH]1 (centres unmarked) [Example 14, 2-[(2-Phenylethyl)sulfinyl]-1H-imidazo[4,5-c]pyridine]
- Inhibition of Bone Resorption, PTH Induced ([1]; Table I): Active
- Inhibition of Bone Resorption, Basal ([2]; Table I, 10 μg/mL): Active
